Active and inactive are the calls of the source.
Key:
Estrogen receptor beta = Estrogen receptor beta (Homo sapiens, UniProt Q92731);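 also: recombinant ER-beta bound to coactivator SRC1 peptide in presence of estradiol agonist; inhibitors block coactivator peptide binding and lower the FRET signal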
[1] = HIV-1 Vif–A3G interaction blockers – biochemical, TR-FRET, GST-Vif 1-94, biotin-A3G peptide, dose response retest, primary screen (AID 1117319); type: functional;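 also: TR-FRET signal of purified GST-Vif binding a biotinylated A3G peptide; inhibitors lower the FRET signal by blocking Vif and A3G binding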
[2] = biological target: T1, Oxysterols receptor LXR-beta (Homo sapiens, UniProt P55055); type: functional, cell-based;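 also: Cell-based luminescence dose-response assay of agonist activity at LXR, run as a confirmatory counterscreen to a daf-12 agonist screen; agonist potency from rising luciferase signal of a Gal4-LXR reporter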
T1 sequence (P55055 whole entry): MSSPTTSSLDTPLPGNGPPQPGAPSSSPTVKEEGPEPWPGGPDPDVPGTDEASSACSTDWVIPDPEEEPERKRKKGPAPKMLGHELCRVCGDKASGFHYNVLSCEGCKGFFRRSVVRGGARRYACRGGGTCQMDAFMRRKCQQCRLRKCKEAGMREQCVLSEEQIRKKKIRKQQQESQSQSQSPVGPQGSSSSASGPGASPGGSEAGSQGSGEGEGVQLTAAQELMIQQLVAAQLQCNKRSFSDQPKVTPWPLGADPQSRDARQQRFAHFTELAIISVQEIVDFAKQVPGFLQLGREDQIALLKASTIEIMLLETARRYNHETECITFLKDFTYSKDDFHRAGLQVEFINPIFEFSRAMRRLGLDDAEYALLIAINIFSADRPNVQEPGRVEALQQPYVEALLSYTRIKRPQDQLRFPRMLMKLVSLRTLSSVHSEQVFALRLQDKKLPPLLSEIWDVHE

[3] = biological target: T2, Heat shock factor protein 1 (Mus musculus, UniProt P38532); experiment: enhancement of HSF1-driven luciferase signal – cell-based, NIH3T3, luminescence, dose retest, confirmation (AID 435004); type: functional;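 also: stress induced by proteasome inhibitor MG132 added 30 min after compound; luciferase reporter driven by HSF1 response element in NIH3T3 cells; actives raise luminescence as potentiators of the MG132 stress response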
T2 sequence (P38532 whole entry): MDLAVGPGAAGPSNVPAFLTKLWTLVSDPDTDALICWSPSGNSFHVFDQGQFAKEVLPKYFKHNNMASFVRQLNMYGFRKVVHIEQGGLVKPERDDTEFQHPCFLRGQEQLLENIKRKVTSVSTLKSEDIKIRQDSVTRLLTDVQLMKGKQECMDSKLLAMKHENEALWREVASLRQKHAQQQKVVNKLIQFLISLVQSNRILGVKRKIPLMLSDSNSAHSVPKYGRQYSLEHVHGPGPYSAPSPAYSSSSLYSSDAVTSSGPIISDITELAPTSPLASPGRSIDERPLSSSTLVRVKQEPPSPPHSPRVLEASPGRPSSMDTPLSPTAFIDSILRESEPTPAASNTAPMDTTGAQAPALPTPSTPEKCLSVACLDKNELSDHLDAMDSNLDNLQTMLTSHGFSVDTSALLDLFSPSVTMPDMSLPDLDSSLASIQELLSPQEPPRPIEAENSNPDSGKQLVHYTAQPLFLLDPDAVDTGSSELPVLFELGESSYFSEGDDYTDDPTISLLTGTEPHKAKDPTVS

[4] = biological target: T1, Oxysterols receptor LXR-beta; experiment: LXR agonists, Gal4 luciferase reporter, dose response, counter-screen for ssDAF-12 agonist project, cell-based, luminescence, HEK293, S. stercoralis campaign (AID 720737); type: functional; conditions: read-out: IC50 (the source's name)
[5] = Luminescence-based cell-based high throughput dose response assay to identify activators of the DAF-12 from the parasite S. stercoralis (ssDAF-12).; type: functional
[6] = toxicity to human HepG2 hepatoma cells – cell-based, plate reader, dry powder samples, cytotoxicity control, dose response (AID 1159569); type: functional;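 also: inhibitor potency with signal falling toward the positive control level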
[7] = Dd2 malaria parasite growth inhibition potency – SYBR Green, dry powder samples, dose response (AID 1159566); type: functional, cell-based;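 also: potency for growth inhibition with lower SYBR green DNA signal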
[8] = growth inhibition of PfATP4-mutant resistant parasites – NITD609-resistant line, SYBR Green, dry powder, dose response (AID 1159571); type: functional, cell-based;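 also: parasites synchronized at ring stage by sorbitol before testing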
[9] = growth inhibition of yeast DHODH-expressing 3D7 parasites – SYBR Green, dry powder samples, dose response (AID 1159570); type: functional, cell-based;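 also: parasite growth measured after 72 hours of compound exposure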
[10] = P. falciparum Dd2 growth inhibitors, dose response, SYBR Green, cherry-picked samples (AID 1159567); type: functional, cell-based
[11] = biological target: T3, Probable nicotinate-nucleotide adenylyltransferase (Staphylococcus aureus (strain N315), UniProt P65502); type: functional, Staphylococcus aureus subsp. aureus N315; conditions: read-out: IC50_Mean;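 as to IC50 Mean: confirmatory dose-response retesting of NadD inhibitor hits first found in an ultra-high-throughput screen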
[12] = biological target: T3, Probable nicotinate-nucleotide adenylyltransferase; type: functional, Staphylococcus aureus subsp. aureus N315
Ephrin type-A receptor 4 = Ephrin type-A receptor 4 (Mus musculus, UniProt Q03137); experiment: EphA4 ligand-binding antagonists – biochemical, colorimetric, mouse EphA4, primary screen (AID 689); type: functional
[13] = general mammalian cell viability loss – inhibitor set, cherry-pick, set 2, cytotoxicity control for miR-122 modulator project, dose response (AID 720697); type: functional, cell-based
[14] = blockers of bursicon-stimulated LGR2 cAMP reporter – cell-based, HEK293, CRE-luciferase reporter, cherry pick, set 2, dose response (AID 743343); type: functional;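 also: transfected cells were stimulated with diluted bursicon conditioned medium after compound addition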
[15] = A549 cell cytotoxicity, dose response, cytotoxicity control, plate reader, cherry-pick, antagonist series (AID 743412); type: functional, cell-based
[16] = viability inhibitors of stage V gametocytes – luminescence, dose response (AID 1117278); type: functional, cell-based;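 also: gametocytes exposed to compound for 24 hours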
[17] = viability loss in human Jurkat cells – cell-based, luminescence, cytotoxicity control for P. falciparum gametocyte viability project, dose response (AID 1117277); type: functional;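 also: potency reflects loss of cellular ATP meaning fewer viable cells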

T3 sequence (P65502 whole entry): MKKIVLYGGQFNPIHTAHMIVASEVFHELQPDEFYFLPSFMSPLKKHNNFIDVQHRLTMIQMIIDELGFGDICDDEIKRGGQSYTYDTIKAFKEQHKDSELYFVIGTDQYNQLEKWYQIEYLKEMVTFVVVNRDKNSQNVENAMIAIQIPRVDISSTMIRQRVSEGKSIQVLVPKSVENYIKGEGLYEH
Sequence of Ephrin type-A receptor 4 (Q03137 whole entry): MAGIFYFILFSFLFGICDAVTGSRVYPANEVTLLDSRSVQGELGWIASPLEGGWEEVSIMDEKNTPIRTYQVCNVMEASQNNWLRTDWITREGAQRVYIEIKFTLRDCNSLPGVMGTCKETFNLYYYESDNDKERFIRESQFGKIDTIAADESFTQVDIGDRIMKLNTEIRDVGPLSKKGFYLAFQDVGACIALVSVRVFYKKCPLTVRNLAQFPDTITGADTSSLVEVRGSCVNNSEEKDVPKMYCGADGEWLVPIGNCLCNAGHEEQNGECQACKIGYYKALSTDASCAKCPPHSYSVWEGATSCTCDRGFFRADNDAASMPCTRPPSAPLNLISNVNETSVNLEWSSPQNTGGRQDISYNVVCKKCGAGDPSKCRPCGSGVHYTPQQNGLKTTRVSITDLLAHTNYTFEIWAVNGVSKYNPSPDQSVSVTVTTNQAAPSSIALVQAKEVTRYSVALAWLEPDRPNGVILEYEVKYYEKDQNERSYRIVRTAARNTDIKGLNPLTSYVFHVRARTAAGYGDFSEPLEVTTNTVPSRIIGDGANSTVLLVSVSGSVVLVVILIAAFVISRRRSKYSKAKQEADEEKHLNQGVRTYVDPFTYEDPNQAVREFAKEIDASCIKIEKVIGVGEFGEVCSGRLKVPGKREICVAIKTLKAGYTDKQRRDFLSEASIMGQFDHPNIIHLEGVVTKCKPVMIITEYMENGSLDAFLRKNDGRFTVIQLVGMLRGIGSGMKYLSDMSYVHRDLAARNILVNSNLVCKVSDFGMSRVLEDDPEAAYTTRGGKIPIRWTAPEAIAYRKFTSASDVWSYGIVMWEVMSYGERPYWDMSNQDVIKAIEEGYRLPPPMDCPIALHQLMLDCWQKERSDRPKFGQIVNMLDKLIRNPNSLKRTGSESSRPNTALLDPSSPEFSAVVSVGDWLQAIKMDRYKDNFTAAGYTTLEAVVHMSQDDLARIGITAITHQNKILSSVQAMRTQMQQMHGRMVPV
Sequence of Estrogen receptor beta (Q92731 whole entry): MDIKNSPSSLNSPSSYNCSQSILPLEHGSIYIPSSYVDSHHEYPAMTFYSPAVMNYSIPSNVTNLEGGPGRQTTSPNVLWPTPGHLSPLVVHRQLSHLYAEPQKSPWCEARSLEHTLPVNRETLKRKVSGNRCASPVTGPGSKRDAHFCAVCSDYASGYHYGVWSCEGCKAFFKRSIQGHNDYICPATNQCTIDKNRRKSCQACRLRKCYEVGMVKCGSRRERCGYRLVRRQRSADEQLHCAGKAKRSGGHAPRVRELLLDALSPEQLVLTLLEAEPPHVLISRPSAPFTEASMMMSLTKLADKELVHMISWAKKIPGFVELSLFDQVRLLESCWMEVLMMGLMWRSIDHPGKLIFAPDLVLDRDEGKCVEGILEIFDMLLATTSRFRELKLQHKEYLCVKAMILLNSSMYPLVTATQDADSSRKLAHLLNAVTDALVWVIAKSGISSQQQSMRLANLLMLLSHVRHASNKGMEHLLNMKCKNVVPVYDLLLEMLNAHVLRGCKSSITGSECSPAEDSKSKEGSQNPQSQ

C=CCN1C(=O)NC(=O)/C(=C(/CC)NCc2cccnc2)C1=O
IC50 (Estrogen receptor beta): > 50 µM (not active)

O=C(Cn1nc(-c2ccc(Cl)cc2)ccc1=O)NCc1ccc2c(c1)OCO2
IC50 [1]: > 100 µM (active)

CC(C)c1ccc(-n2cnn(-c3ncccc3[N+](=O)[O-])c2=O)cc1
EC50 (cells): > 67.5 µM (inactive) | EC50 [2]: > 67.5 µM (inactive) | EC50 [3]: > 260 µM (inactive)

O=c1[nH][nH]c2cc(=O)n(-c3cccc(C(F)(F)F)c3)nc12
EC50 [4]: > 67.5 µM (inactive) | IC50 [5]: > 67.5 µM (inactive) | EC50 [3]: > 260 µM (inactive)

COCC(=O)Nc1ccc2c(c1)C(=O)N(C)C[C@H](OC)[C@H](C)CN(Cc1cc(F)ccc1F)[C@@H](C)CO2
AC50 [6]: > 100 µM (inactive) | AC50 [7]: 1.18 µM (active) | AC50 [8]: 1.84 µM (active) | AC50 [9]: 13.1 µM (active) | AC50 [10]: 2.25 µM (active)

CC(C)CC(C(=O)Nc1oc(-c2ccco2)c(-c2ccco2)c1C#N)N1C(=O)c2ccccc2C1=O (stereo not drawn)
IC50 [11]: 53.1 µM (active) | IC50 [12]: 16.4 µM (active) | IC50 (Ephrin type-A receptor 4): > 100 µM (not active)

COc1ccc(-c2nc3ccccn3c2Cl)cc1
EC50 [4]: > 67.6 µM (inactive) | IC50 [5]: > 67.6 µM (inactive)

CCn1nnnc1SCC(=O)Nc1nnc(C(C)C)s1
AC50 [13]: 7.36 µM (active)

NCC[C@H]1CC[C@H](NS(=O)(=O)Cc2ccccc2)[C@@H](CO)O1
AC50 [14]: 40.7 µM (active) | AC50 [15]: > 52 µM (inactive)

NCCN1CCN(CCN)CC1
IC50 [16]: > 109 µM (inactive) | IC50 [17]: > 83.4 µM (inactive)

Reference: ChEMBL document CHEMBL1201862, “PubChem BioAssay data set” (2004)
